Reference: paper PMC9797896 (Medicinal Chemistry Research, 2022)
“And” between values parts separate entries of the source, which are not always exact repeats. Equal values may be shown once. Read-outs that look alike come from different tables or passages of the source.

Test system: SARS-CoV-2 (Omicron variant, B.1.1.529/BA.2 sublineage)
Assay: microbe, parasite or virus in culture
Assay type: cell-based
Conditions: for EC50 / EC90: Severe acute respiratory syndrome coronavirus 2, Vero C1008, 48 h; for EC90: read-out: 90% Reduction in Infectious Virus (EC90); for time to maximal effectiveness against the Omicron variant particles: after starting administration and treatment
[1] = read-out: 50% Reduction in Infectious Virus (EC50)
[2] = read-out: 50% Reduction in Viral RNA Copy (EC50)

SMILES | 100% CPE Inhibitory Concentration (CPEIC100) | EC50 [1] [nM] | EC50 [2] [nM] | EC90 [nM] | time to maximal effectiveness against the Omicron variant particles [h] | 100% CPE Inhibitory Concentration (CPEIC100) (listed as forodesine) [µM]
OC[C@H]1O[C@@H](n2cnc3c(N[C@@H]4CCOC4)ncnc32)[C@H](O)[C@@H]1O [Tecadenoson, tecadenoson] | 7.73 ± 0.23 µM | 2900 ± 100 | 2950 ± 110 | 11900 ± 320 | – | –
CC(C)=CCNc1ncnc2c1ncn2[C@@H]1O[C@H](CO)[C@@H](O)[C@H]1O [Riboprine, N^6-(2-Isopentenyl)adenosine] | 1.21 µM and 1.21 ± 0.04 µM | ~450 | 480 ± 30 | 1710 ± 50 | 4 to 10 | –
CCC(CC)COC(=O)[C@H](C)N[P@](=O)(OC[C@H]1O[C@@](C#N)(c2ccc3c(N)ncnn23)[C@H](O)[C@@H]1O)Oc1ccccc1 [Remdesivir, remdesivir] | 5.99 µM and 5.99 ± 0.20 µM | 2070 ± 80 | – | 8010 ± 290 | – | –
CC(C)C(=O)OC[C@H]1O[C@@H](n2ccc(NO)nc2=O)[C@H](O)[C@@H]1O [Molnupiravir, molnupiravir] | 6.28 µM and 6.28 ± 0.28 µM | 2610 ± 100 | 2730 ± 110 | 9100 ± 310 | – | –
CC(C)Nc1nc2cc(Cl)c(Cl)cc2n1[C@H]1O[C@@H](CO)[C@H](O)[C@@H]1O [Maribavir, maribavir] | 7.97 ± 0.27 µM | 3050 ± 130 | 3200 ± 140 | 12300 ± 330 | – | –
Nc1ncnc2c1ncn2[C@@H]1O[C@H](CO)[C@@H](O)[C@@H]1O [Vidarabine, Arabinosyladenine] | 8.10 ± 0.25 µM | 3200 ± 130 | 3230 ± 130 | 12600 ± 350 | – | –
O=c1[nH]cnc2c([C@@H]3N[C@H](CO)[C@@H](O)[C@H]3O)c[nH]c12 [Forodesine, forodesine] | 1.69 ± 0.06 µM | ~700 | 730 ± 40 | 2200 ± 60 | 4 to 10 | 1.69
COc1nc(N)nc2c1ncn2[C@@H]1O[C@H](CO)[C@@H](O)[C@@H]1O [Nelarabine, nelarabine] | – | 1680 ± 80 | 1750 ± 80 | 6460 ± 180 | – | –
